Each molecule was assayed against T1, human PAH with the R408W mutation (A375 R408W cells) (Homo sapiens, UniProt P00439, R408W) (assay: Cell Based Phenylalanine Flux Assay). Conditions: A375 R408W cells; 24 hrs with compound, then 20 μM sepiapterin and 800 μM 13C9,15N-Phenylalanine for 4 hours; 13C-Tyrosine by LC-MS; average where tested multiple times.
T1 construct: expressed in transfected cells
T1 sequence (P00439 1-452 R408W): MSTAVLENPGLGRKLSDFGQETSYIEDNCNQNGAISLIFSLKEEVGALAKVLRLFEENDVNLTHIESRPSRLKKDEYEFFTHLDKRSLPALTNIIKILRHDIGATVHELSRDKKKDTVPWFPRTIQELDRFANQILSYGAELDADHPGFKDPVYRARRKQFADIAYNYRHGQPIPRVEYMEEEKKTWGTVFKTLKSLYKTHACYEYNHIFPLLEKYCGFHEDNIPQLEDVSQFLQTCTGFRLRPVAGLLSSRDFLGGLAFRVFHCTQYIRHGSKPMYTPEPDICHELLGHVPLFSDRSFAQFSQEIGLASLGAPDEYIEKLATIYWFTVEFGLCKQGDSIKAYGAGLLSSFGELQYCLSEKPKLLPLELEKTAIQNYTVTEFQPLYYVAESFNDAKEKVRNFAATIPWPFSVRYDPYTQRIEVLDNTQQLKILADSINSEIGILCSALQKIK
Outline: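 AC50 is derived from LC-MS of 13C-tyrosine in the media after a 4 h pulse of 800 μM 13C9,15N-phenylalanine plus 20 μM sepiapterin. The A375 R408W PAH cells had received duplicate 10-point, 2-fold compound dilutions (0.5% DMSO) for 24 h beforehand.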
`O=C(c1ocnc1C(F)F)N1CCc2[nH]cnc2[C@H]1c1nc2cc(Cl)cc(F)c2o1` [Example 608, (S)-(4-(5-chloro-7-fluorobenzo[d]oxazol-2-yl)-6,7-dihydro-1H-imidazo[4,5-c]pyridin-5(4H)-yl)(4-(difluoromethyl)oxazol-5-yl)methanone] was tested, and the AC50 was no more than 0.5 µM.
Molecule `Cc1ccc2nc([C@H]3c4nc[nH]c4CCN3C(=O)c3nnc(-c4ncccc4F)o3)oc2c1` [Example 680, (R)-(5-(3-fluoropyridin-2-yl)-1,3,4-oxadiazol-2-yl)(4-(6-methylbenzo[d]oxazol-2-yl)-6,7-dihydro-1H-imidazo[4,5-c]pyridin-5(4H)-yl)methanone] has an AC50 of 1 to 5 µM.
With `O=C(c1cnn2cc(-c3ccccn3)ccc12)N1CCc2[nH]cnc2[C@@H]1c1nc2cc(F)ccc2o1` [Example 82, (R)-(4-(5-fluorobenzo[d]oxazol-2-yl)-6,7-dihydro-1H-imidazo[4,5-c]pyridin-5(4H)-yl)(6-(pyridin-2-yl)pyrazolo[1,5-a]pyridin-3-yl)methanone] the AC50 was no less than 5 µM.
`Cc1cccc2nc([C@@H]3c4nc[nH]c4CCN3C(=O)c3nnc(-c4cnn(C(F)F)c4)o3)oc12` [Example 872, (S)-(5-(1-(difluoromethyl)-1H-pyrazol-4-yl)-1,3,4-oxadiazol-2-yl)(4-(7-methylbenzo[d]oxazol-2-yl)-6,7-dihydro-1H-imidazo[4,5-c]pyridin-5(4H)-yl)methanone] gave an AC50 of 0.5 to 1 µM.
`Cc1ccc(C)c2oc([C@@H]3c4nc[nH]c4CCN3C(=O)c3oc(C(C)(C)O)nc3C(F)F)nc12` [Example 659, (S)-(4-(difluoromethyl)-2-(2-hydroxypropan-2-yl)oxazol-5-yl)(4-(4,7-dimethylbenzo[d]oxazol-2-yl)-6,7-dihydro-1H-imidazo[4,5-c]pyridin-5(4H)-yl)methanone] showed an AC50 of no more than 0.5 µM.
`O=C(c1ccnn1C(F)F)N1CCc2[nH]cnc2[C@@H]1c1nc2cccc(F)c2o1` [Example 196, (R)-(1-(difluoromethyl)-1H-pyrazol-5-yl)(4-(7-fluorobenzo[d]oxazol-2-yl)-6,7-dihydro-1H-imidazo[4,5-c]pyridin-5(4H)-yl)methanone] was tested, and the AC50 was 1 to 5 µM.
In the case of `COc1cccc2nc([C@@H]3c4nc[nH]c4CCN3C(=O)c3nc(C)nn3C)oc12` [Example 909, (S)-(1,3-dimethyl-1H-1,2,4-triazol-5-yl)(4-(7-methoxybenzo[d]oxazol-2-yl)-6,7-dihydro-1H-imidazo[4,5-c]pyridin-5(4H)-yl)methanone], the AC50 is reported as 1 to 5 µM.
`Cc1nc(C(C)(C)O)oc1C(=O)N1CCc2[nH]cnc2[C@H]1c1nc2cccc(F)c2o1` [Example 268, (S)-(4-(7-fluorobenzo[d]oxazol-2-yl)-6,7-dihydro-1H-imidazo[4,5-c]pyridin-5(4H)-yl)(2-(2-hydroxypropan-2-yl)-4-methyloxazol-5-yl)methanone] was tested, and the AC50 was 0.5 to 1 µM.
In the case of `Cc1ccc2oc([C@H]3c4nc[nH]c4CCN3C(=O)c3nnc(-c4cc[nH]n4)o3)nc2c1` [Example 356, (R)-(5-(1H-pyrazol-3-yl)-1,3,4-oxadiazol-2-yl)(4-(5-methylbenzo[d]oxazol-2-yl)-6,7-dihydro-1H-imidazo[4,5-c]pyridin-5(4H)-yl)methanone], the AC50 is reported as 1 to 5 µM.
`O=C(c1cnco1)N1Cc2[nH]cnc2[C@H]1c1nc2ccccc2o1` (single isomer, unassigned) [Example 925] gave an AC50 of no less than 5 µM.
`O=C(c1cnn2cc(-c3ccccn3)ccc12)N1CCc2[nH]cnc2[C@H]1c1nc2c(F)cccc2o1` [Example 543, (S)-(4-(4-fluorobenzo[d]oxazol-2-yl)-6,7-dihydro-1H-imidazo[4,5-c]pyridin-5(4H)-yl)(6-(pyridin-2-yl)pyrazolo[1,5-a]pyridin-3-yl)methanone] was tested, and the AC50 was no more than 0.5 µM.
`Cn1nc(C2CC2)nc1C(=O)N1CCc2[nH]cnc2[C@H]1c1nc2cccc(F)c2o1` [Example 497, (S)-(3-cyclopropyl-1-methyl-1H-1,2,4-triazol-5-yl)(4-(7-fluorobenzo[d]oxazol-2-yl)-6,7-dihydro-1H-imidazo[4,5-c]pyridin-5(4H)-yl)methanone] was tested, and the AC50 was 1 to 5 µM.
Molecule `O=C(c1ocnc1C(F)(F)F)N1CCc2[nH]cnc2[C@@H]1c1nc2ccc(F)cc2o1` [Example 162, (R)-(4-(6-fluorobenzo[d]oxazol-2-yl)-6,7-dihydro-1H-imidazo[4,5-c]pyridin-5(4H)-yl)(4-(trifluoromethyl)oxazol-5-yl)methanone] has an AC50 of 1 to 5 µM.
Work on `O=C(c1ccnn1C(F)(F)F)N1Cc2[nH]cnc2[C@H]1c1nc2ccccc2o1` [Example 953, (S)-(4-(benzo[d]oxazol-2-yl)-4,6-dihydropyrrolo[3,4-d]imidazol-5(1H)-yl)(1-(trifluoromethyl)-1H-pyrazol-5-yl)methanone] yielded an AC50 of 1 to 5 µM.
In the case of `O=C(c1oc(-c2ccncc2)nc1C(F)F)N1CCc2[nH]cnc2[C@@H]1c1nc2cccc(F)c2o1` [Example 559, (R)-(4-(difluoromethyl)-2-(pyridin-4-yl)oxazol-5-yl)(4-(7-fluorobenzo[d]oxazol-2-yl)-6,7-dihydro-1H-imidazo[4,5-c]pyridin-5(4H)-yl)methanone], the AC50 is reported as no more than 0.5 µM.
In the case of `Cc1ccc2c(C(=O)N3CCc4[nH]cnc4[C@@H]3c3nc4cc(F)ccc4o3)cnn2c1` [Example 20, (R)-(4-(5-fluorobenzo[d]oxazol-2-yl)-6,7-dihydro-1H-imidazo[4,5-c]pyridin-5(4H)-yl)(6-methylpyrazolo[1,5-a]pyridin-3-yl)methanone], the AC50 is reported as no less than 5 µM.
For `O=C(CC1(O)CCC1)N1CCc2[nH]cnc2[C@@H]1c1nc2cc(F)ccc2o1` [Example 56, (R)-1-(4-(5-fluorobenzo[d]oxazol-2-yl)-6,7-dihydro-1H-imidazo[4,5-c]pyridin-5(4H)-yl)-2-(1-hydroxycyclobutyl)ethanone], the AC50 was 1 to 5 µM.
`CC(O)c1nc(Cl)c(C(=O)N2CCc3[nH]cnc3[C@H]2c2nc3cc(F)ccc3o2)o1` (single isomer, unassigned) [Example 235] gave an AC50 of 1 to 5 µM.
With `CC(C)(O)c1nc(C(F)F)c(C(=O)N2CCc3[nH]cnc3[C@H]2c2nc3cc(C(F)(F)F)ccc3o2)o1` [Example 327, (S)-(4-(difluoromethyl)-2-(2-hydroxypropan-2-yl)oxazol-5-yl)(4-(5-(trifluoromethyl)benzo[d]oxazol-2-yl)-6,7-dihydro-1H-imidazo[4,5-c]pyridin-5(4H)-yl)methanone] the AC50 was no more than 0.5 µM.

Same assay, conditions: A375 cells expressing R408W PAH; 24 hrs with compound, then 20 μM sepiapterin and 800 μM 13C9,15N-Phenylalanine for 4 hours; 13C-Tyrosine by LC-MS; average where tested multiple times
`O=C(c1nccs1)N1CCc2[nH]cnc2C1c1nc2ccc(Br)cc2o1` (centres unmarked) showed an AC50 of 1 to 5 µM.
For `O=C(c1cnco1)N1CCc2[nH]cnc2C1c1nc2ccc(F)c(F)c2o1` (centres unmarked), the AC50 was 1 to 5 µM.
For `COCCCc1ccc2c(C(=O)N3CCc4[nH]cnc4C3c3nc4cc(F)ccc4o3)cnn2c1` (centres unmarked), the AC50 was 1 to 5 µM.
`O=C(c1cnco1)N1CCc2[nH]cnc2C1c1nc2ccc(F)cc2o1` (centres unmarked) gave an AC50 of no less than 5 µM.
In the case of `Nc1cc(C(=O)N2CCc3[nH]cnc3C2c2nc3cc(F)ccc3o2)n(C(F)F)n1` (centres unmarked), the AC50 is reported as 1 to 5 µM.
`Cn1cnc(-c2nnc(C(=O)N3CCc4[nH]cnc4C3c3nc4cccc(C(F)(F)F)c4o3)o2)c1` (centres unmarked) gave an AC50 of 1 to 5 µM.
In the case of `O=C(CCc1cncs1)N1CCc2[nH]cnc2[C@H]1c1nc2c(F)cccc2o1` (single isomer, unassigned), the AC50 is reported as 1 to 5 µM.
`Cc1nc(C(C)(C)O)oc1C(=O)N1CCc2[nH]cnc2C1c1nc2cc(F)ccc2o1` (centres unmarked) showed an AC50 of no less than 5 µM.
In the case of `Cn1cnnc1C(=O)N1CCc2[nH]cnc2C1c1nc2ccc(F)cc2o1` (centres unmarked), the AC50 is reported as no less than 5 µM.
Molecule `O=C(c1cnn2cc(CCN3CCOCC3)ccc12)N1CCc2[nH]cnc2C1c1nc2cc(F)ccc2o1` (centres unmarked) has an AC50 of 1 to 5 µM.

From patent US20250171437A1 (Agios Pharmaceuticals,Inc., priority 2022, published 2025)
